Measurements published in ChEMBL document CHEMBL5506048, “Modular Biomimetic Strategy Enables Discovery and SAR Exploration of Oxime Macrocycles as Influenza A Virus (H1N1) Inhibitors” (J Med Chem, 2024).
pEC50: −log10 of the molar value. The source made the active and inactive calls. The rule behind the calls is not given here.

Columns and labels:
Influenza A virus [1] = assay: Antiviral activity against Influenza virus H1N1 A/Puerto Rico/8/34 (A/PR/8/34) 2.5TCID50 infected in human Calu-3 cells assessed as reduction in virus-induced cytopathic effect by measuring sloughing at 0.0156 to 37 uM measured after 3 days by immunofluorescence assay; assay type: functional, organism-based; conditions: dose 0.0156-37 µM, time 3.0 day
Influenza A virus [2] = assay: Synergistic antiviral activity against Influenza virus H1N1 A/Puerto Rico/8/34 (A/PR/8/34) infected in human Calu-3 cells assessed as combination index of 50% inhibition at 3.91 nM in presence of 83.1 nM oseltamivir acid; assay type: functional
Influenza A virus [3] = assay: Synergistic antiviral activity against Influenza virus H1N1 A/Puerto Rico/8/34 (A/PR/8/34) infected in human Calu-3 cells assessed as combination index of 50% inhibition at 0.98 nM in presence of 172 nM oseltamivir acid; assay type: functional
Influenza A virus [4] = assay: Synergistic antiviral activity against Influenza virus H1N1 A/Puerto Rico/8/34 (A/PR/8/34) infected in human Calu-3 cells assessed as combination index of 50% inhibition at 0.06 nM in presence of 450 nM oseltamivir acid; assay type: functional
Influenza A virus [5] = assay: Antiviral activity against Influenza virus H1N1 A/Puerto Rico/8/34 (A/PR/8/34) 2.5TCID50 infected in human Calu-3 cells assessed as reduction in virus-induced cytopathic effect by measuring cell rounding at 0.0156 to 37 uM measured after 3 days by immunofluorescence assay; assay type: functional, organism-based; conditions: dose 0.0156-37 µM, time 3.0 day
[6] = Clearance in ICR (CD-1) mouse at 2 mg/kg, iv measured upto 24 hrs by LC-MS/MS analysis; assay type: ADME, organism-based; conditions: in vivo
Influenza A virus [7] = assay: Antiviral activity against Influenza virus H1N1 A/Puerto Rico/8/34 (A/PR/8/34) infected in human Calu-3 cells assessed as viral RNA measured after 3 days by one-time real time PCR assay; assay type: functional, organism-based; conditions: Calu-3, 72 h
[8] = AUC (0 to infinity) in ICR (CD-1) mouse at 2 mg/kg, iv measured upto 24 hrs by LC-MS/MS analysis; assay type: ADME, organism-based; conditions: in vivo
Ebolavirus = assay: Antiviral activity against HIV pseudotyped EBOV GP infected in human 293T cells assessed as inhibition of viral entry into cells by measuring intensity of chemiluminescence measured after 3 days by Bright-Glo luciferase assay; assay type: functional, organism-based; conditions: HEK293T, time 3.0 day
[9] = Half life in ICR (CD-1) mouse at 10 mg/kg, po measured upto 24 hrs by LC-MS/MS analysis; assay type: ADME, organism-based; conditions: in vivo
[10] = AUC (0 to infinity) in ICR (CD-1) mouse at 10 mg/kg, po measured upto 24 hrs by LC-MS/MS analysis; assay type: ADME, organism-based; conditions: in vivo
Influenza A virus [11] = assay: Synergistic antiviral activity against Influenza virus H1N1 A/Puerto Rico/8/34 (A/PR/8/34) infected in human Calu-3 cells assessed as combination index of 50% inhibition at 2.61 nM in presence of 62.5 nM oseltamivir acid; assay type: functional
Influenza A virus [12] = assay: Synergistic antiviral activity against Influenza virus H1N1 A/Puerto Rico/8/34 (A/PR/8/34) infected in human Calu-3 cells assessed as combination index of 50% inhibition at 28.3 nM in presence of 3.91 nM oseltamivir acid; assay type: functional
[13] = Selectivity index, ratio of CC50 for human Calu-3 cells to EC50 for antiviral activity against Influenza virus HINI A/Puerto Rico/8/34 (A/PR/8/34); assay type: toxicity; conditions: read-out: Selectivity Index
[14] = Volume of distribution in ICR (CD-1) mouse at 2 mg/kg, iv measured upto 24 hrs by LC-MS/MS analysis; assay type: ADME, organism-based; conditions: in vivo
Calu-3 = assay: Cytotoxicity against human Calu-3 cells assessed as cell viability measured after 3 days by CellTiter-Lumi Steady Plus Luminescent Cell Viability Assay Kit; assay type: functional; conditions: Calu-3, 72 h, time 3 day
[15] = Half life in ICR (CD-1) mouse at 2 mg/kg, iv measured upto 24 hrs by LC-MS/MS analysis; assay type: ADME, organism-based; conditions: in vivo
[16] = Stability of the compound in RPMI 1640 cell culture medium containing 10% fetal bovine serum assessed as compound remaining measured after 24 hrs by LC-MS/MS analysis; assay type: physicochemical, cell-free; conditions: cattle, read-out: Stability
[17] = Stability of the compound in pH 7.4 PBS buffer assessed as compound remaining measured after 24 hrs by LC-MS/MS analysis; assay type: physicochemical; conditions: read-out: Stability
Influenza A virus [18] = assay: Antiviral activity against Influenza virus H1N1 A/Puerto Rico/8/34 (A/PR/8/34) 2.5TCID50 infected in human Calu-3 cells assessed as reduction in virus-induced cytopathic effect by measuring degeneration at 0.0156 to 37 uM measured after 3 days by immunofluorescence assay; assay type: functional, organism-based; conditions: dose 0.0156-37 µM, time 3.0 day
Influenza A virus [19] = assay: Antiviral activity against HIV pseudotyped H5N1 HA infected in human 293T cells assessed as inhibition of viral entry into cells by measuring intensity of chemiluminescence measured after 3 days by Bright-Glo luciferase assay; assay type: functional, organism-based; conditions: HEK293T, time 3.0 day
Influenza B virus = assay: Antiviral activity against Influenza virus Flu B (B/Taiwan/2/62) infected in human Calu-3 cells assessed as viral RNA measured after 3 days by one-time real time PCR assay; assay type: functional, organism-based; conditions: B/Taiwan/2/62, Calu-3, 72 h
[20] = Cmax in ICR (CD-1) mouse at 10 mg/kg, po measured upto 24 hrs by LC-MS/MS analysis; assay type: ADME, organism-based; conditions: in vivo
Influenza A virus [21] = assay: Synergistic antiviral activity against Influenza virus H1N1 A/Puerto Rico/8/34 (A/PR/8/34) infected in human Calu-3 cells assessed as combination index of 50% inhibition at 15.6 nM in presence of 31 nM oseltamivir acid; assay type: functional
Influenza A virus [22] = assay: Antiviral activity against Influenza virus HIN1 (A/California/07/2009 pdm09) infected in human Calu-3 cells assessed as viral RNA measured after 3 days by one-time real time PCR assay; assay type: functional, organism-based; conditions: Calu-3, 72 h
[23] = Tmax in ICR (CD-1) mouse at 10 mg/kg, po measured upto 24 hrs by LC-MS/MS analysis; assay type: ADME, organism-based; conditions: in vivo
Influenza A virus [24] = assay: Synergistic antiviral activity against Influenza virus H1N1 A/Puerto Rico/8/34 (A/PR/8/34) infected in human Calu-3 cells assessed as combination index of 50% inhibition at 0.24 nM in presence of 170 nM oseltamivir acid; assay type: functional
Influenza A virus [25] = assay: Antiviral activity against Influenza virus H3N2 (A/Hong Kong/8/68) infected in human Calu-3 cells assessed as viral RNA measured after 3 days by one-time real time PCR assay; assay type: functional, organism-based; conditions: Calu-3, 72 h
[26] = Oral bioavailability in ICR (CD-1) mouse at 10 mg/kg measured upto 24 hrs by LC-MS/MS analysis; assay type: ADME, organism-based; conditions: in vivo

C=C1Cc2cc(C(F)(F)F)ccc2C(=O)NCC2(CCC2)/C(=N/OC)CCCOC1=O
Activity (Influenza A virus [1]): Active | CI50 (Influenza A virus [2]): 0.28 | CI50 (Influenza A virus [3]): 0.35 | CI50 (Influenza A virus [4]): 0.84 | Activity (Influenza A virus [5]): Active | clearance [6]: 151 mL/min/kg | pEC50 (Influenza A virus [7]): 7.64 | EC90 (Influenza A virus [7]; time 3 day): 142 nM | AUC(0-inf) [8]: 222 ng·h/mL | Activity (Ebolavirus): inactive | half-life [9]: 39 min | AUC(0-inf) [10]: 2.65 ng·h/mL | CI50 (Influenza A virus [11]): 0.2 | CI50 (Influenza A virus [12]): 0.93 | selectivity ratio [13]: > 4350 | Vd [14]: 3.12 L/kg | CC50 (Calu-3): > 100000 nM | half-life [15]: 24.6 min | remaining at 24 h [16]: > 90% | remaining at 24 h [17]: > 90% | Activity (Influenza A virus [18]): Active | Activity (Influenza A virus [19]): inactive | pEC50 (Influenza B virus): < 4.30 | Cmax [20]: 2.42 ng/mL | CI50 (Influenza A virus [21]): 0.57 | pEC50 (Influenza A virus [22]): 7.21 | Tmax [23]: 15 min | CI50 (Influenza A virus [24]): 0.32 | pEC50 (Influenza A virus [25]): < 4.30 | bioavailability [26]: 0.12%
